Source: ChEMBL document CHEMBL1201862, “PubChem BioAssay data set” (2004)
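Protocol summary: plate cells (96-well), add compound at 5 concentrations, incubate 48 h, interpolate endpoints linearly. Abbreviation: GI50, concentration required for 50% inhibition of growth.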 The source made the active and inactive calls. Cut-off read from the data, not from the text of the source: active = GI50 up to about 1.1 µM and inactive = higher.

Key:
Assay in all cases: inhibition of tumour cell growth, NCI panel, 48 h
MOLT-4 = system: MOLT-4
UACC-257 = system: UACC-257
SNB-19 = system: SNB-19
DU-145 = system: DU-145
KM12 = system: KM12
A498 = system: A498
UO-31 = system: UO-31
MDA-MB-231 = system: MDA-MB-231
TK-10 = system: TK-10
HOP-62 = system: HOP-62
SNB-75 = system: SNB-75
SF-539 = system: SF-539
NCI/ADR-RES = system: NCI/ADR-RES
RXF 393 = system: RXF 393
BT-549 = system: BT-549
SN12C = system: SN12C
ACHN = system: ACHN
SK-MEL-5 = system: SK-MEL-5
SR = system: SR
CCRF-CEM = system: CCRF-CEM

SMILES | GI50 (MOLT-4) | GI50 (UACC-257) | GI50 (SNB-19) | GI50 (DU-145) | GI50 (KM12) | GI50 (A498) | GI50 (UO-31) | GI50 (MDA-MB-231) | GI50 (TK-10) | GI50 (HOP-62) | GI50 (SNB-75) | GI50 (SF-539) | GI50 (NCI/ADR-RES) | GI50 (RXF 393) | GI50 (BT-549) | GI50 (SN12C) | GI50 (ACHN) | GI50 (SK-MEL-5) | GI50 (SR) | GI50 (CCRF-CEM)
Nc1ncnc2c1ncn2C1OC(CO)C(O)C1N (centres undefined) | > 100 µM (inactive) | > 100 µM (inactive) | > 100 µM (inactive) | > 100 µM (inactive) | > 100 µM (inactive) | > 100 µM (inactive) | > 100 µM (inactive) | > 100 µM (inactive) | > 100 µM (inactive) | > 100 µM (inactive) | > 100 µM (inactive) | > 100 µM (inactive) | > 100 µM (inactive) | > 100 µM (inactive) | > 100 µM (inactive) | > 100 µM (inactive) | > 100 µM (inactive) | > 100 µM (inactive) | > 100 µM (inactive) | –
CCN(CC)CCNc1ccc2nnn3c4ccc(OC(C)=O)cc4c(=O)c1c23 | 0.284 µM (active) | 9.84 µM (inactive) | > 20.3 µM (inactive) | 2.39 µM (inactive) | 3.15 µM (inactive) | 6.76 µM (inactive) | 1.63 µM (inactive) | 2.65 µM (inactive) | 3.52 µM (inactive) | 1.98 µM (inactive) | – | 1.67 µM (inactive) | 4.45 µM (inactive) | 1.11 µM (active) | 13.4 µM (inactive) | 2.26 µM (inactive) | 1.02 µM (active) | 1.88 µM (inactive) | 0.706 µM (active) | 0.644 µM (active)
N=C(N)N/N=C/c1nc2n(c1[N+](=O)[O-])CCS2 | 22.2 µM (inactive) | 17.1 µM (inactive) | 27.5 µM (inactive) | 27.3 µM (inactive) | 25 µM (inactive) | 43.3 µM (inactive) | > 100 µM (inactive) | 29 µM (inactive) | 40.7 µM (inactive) | 41.4 µM (inactive) | 23.9 µM (inactive) | 29 µM (inactive) | > 100 µM (inactive) | 20.8 µM (inactive) | 31.6 µM (inactive) | 22 µM (inactive) | > 100 µM (inactive) | 18.5 µM (inactive) | 14.5 µM (inactive) | –
CC1(C)OC2C(CO)OC(n3ccc(N)nc3=O)C2O1 (centres undefined) | > 100 µM (inactive) | > 100 µM (inactive) | > 100 µM (inactive) | > 100 µM (inactive) | > 100 µM (inactive) | 21.5 µM (inactive) | > 100 µM (inactive) | > 100 µM (inactive) | > 100 µM (inactive) | > 100 µM (inactive) | – | > 100 µM (inactive) | > 100 µM (inactive) | > 100 µM (inactive) | > 100 µM (inactive) | > 100 µM (inactive) | > 100 µM (inactive) | > 100 µM (inactive) | > 100 µM (inactive) | > 100 µM (inactive)
Cc1cc(C)c2c(c1)C(=O)C1(C2)Cc2c(ccc(C)c2C)C1=O (centres undefined) | > 100 µM (inactive) | > 100 µM (inactive) | > 100 µM (inactive) | > 100 µM (inactive) | > 100 µM (inactive) | > 100 µM (inactive) | > 100 µM (inactive) | > 100 µM (inactive) | > 100 µM (inactive) | – | > 100 µM (inactive) | 85.5 µM (inactive) | > 100 µM (inactive) | > 100 µM (inactive) | > 100 µM (inactive) | > 100 µM (inactive) | > 100 µM (inactive) | > 100 µM (inactive) | > 100 µM (inactive) | > 100 µM (inactive)
O=S(=O)(O)c1cc(O)c2c(O)c(/N=N/c3cccc4ccccc34)c(S(=O)(=O)O)cc2c1 | > 100 µM (inactive) | > 100 µM (inactive) | > 100 µM (inactive) | > 100 µM (inactive) | > 100 µM (inactive) | > 100 µM (inactive) | > 100 µM (inactive) | > 100 µM (inactive) | > 100 µM (inactive) | > 100 µM (inactive) | > 100 µM (inactive) | > 100 µM (inactive) | > 100 µM (inactive) | > 100 µM (inactive) | > 100 µM (inactive) | > 100 µM (inactive) | > 100 µM (inactive) | > 100 µM (inactive) | > 100 µM (inactive) | –
